In this test the test system is wild-type mice. Kind of test: Cardiac mitochondrial, cytosolic and nuclear non-heme iron in wild-type mice treated with iron chelator. Type of test: in vivo. To be noted: wild-type mice at baseline, one-week regimen, BPD 80 mg/kg per day, DFO 50 mg/kg every other day. As to the method:
Mice were treated with 80 mg/kg BPD (Sigma) in normal saline solution daily or 50 mg/kg DFO (Sigma) in normal saline every other day via intraperitoneal injection. The dose of BPD was chosen based on its ability to modulate cardiac mitochondrial iron, and the dose of DFO was chosen according to previously published studies (Ichikawa et al., 2014). BPD was prepared as a 400 mg/ml stock solution in ethanol and diluted 1:100 in normal saline to working concentration. DFO was prepared as a 250 mg/ml stock in water and diluted 1:100 in normal saline to working concentration. […]
Tissue iron was measured colorimetrically by the formation of a complex with bathophenanthroline disulfonate or ferene-S as described previously (Ichikawa et al., 2012; Khechaduri et al., 2013). […] Quantitative measurement of labile iron was done according to previously described methods (Cabantchik et al., 1996; Petrat et al., 2002b). […] Fluorescence intensity was measured using Gemini XS plate reader (Molecular Device) with following excitation emission setting: ex/em 490 nm/520 nm for mitoTracker Green and calcein, 564 nm/601 nm for RPA, and 350 nm/461 nm for Hoechst 33342. After initial measurement, 2 mM of PIH (Abcam) was added to each well and fluorescence signal was measured again. […]

“Also recorded” adds a separate entry of the source.

As for `c1ccc(-c2ccccn2)nc1` [BPD, 2,2′-bipyridyl], the cardiac mitochondrial iron result was “decreased cardiac mitochondrial iron; also recorded: decreased baseline mitochondrial iron; also recorded: lower mitochondrial iron”.

The record behind these values is US10258612B2, “Mitochondrial lipid permeable iron chelators for treating and preventing ischemia/reperfusion (I/R) injury in the heart following an ischemic event” (Northwestern University, priority 2015, dated 2019).
